One assay deals with HLA-A2. Briefly: HLA binding of NEG8 peptides shared with other flu proteins (Table 5), A2. Conditions: score printed after 'A2:'; no method or unit given. From the text:
(§1) was used to search datasets of T cell epitopes derived from influenza virus infected cells. The NEG8 peptides described in Examples 1 and 2 were also identified using this search. The purpose of performing the search was to establish whether any NEG8 peptides or sequences within the polypeptide encoded by the NEG8 ORF are shared with any other influenza A virus proteins. Table 5 sets out T cell epitopes derived from influenza A virus proteins other than NEG8 that are also comprised in one or more of the NEG8 peptides identified in Examples 1 and 2 or the polypeptide encoded by the NEG8 ORF. From this, numerous NEG8 peptides considered to bind to MHC in cells infected with influenza A virus can be identified based on confidence level, XCorr, and performance of fragment mass spectra.

For another assay, the system named is HLA-A24. The assay is described as follows: HLA binding of NEG8 peptides shared with other flu proteins (Table 5), A24. Conditions: no method or unit given.
From the text: as §1

Another assay concerns HLA-B7. Briefly: HLA binding of NEG8 peptides shared with other flu proteins (Table 5), B7. Conditions: score printed after 'B7:'; no method or unit given.
From the text: as §1

The test system of the next assay is MHC class I. It counts as cell-based.

Experimental findings from patent US12156909B2, “Reverse peptide vaccine” (Emergex Vaccines Holding Limited, priority 2018, dated 2024) are described below.

Take AFNMMFLSM: in the assay on HLA-A2, the “HLA binding A2” value is “A2:10”. The “HLA binding A24” value in the assay on HLA-A24 is listed as “A24:7”.

On to AFSVMFLSM, for which the “HLA binding A24” value in the assay on HLA-A24 is listed as “A24:7”. Same read-out and setting: the entry for AILSLQTFD (Influenza A virus) is “A24:2”.

For the sequence ALSSIRVSS (Influenza A virus), in the assay on HLA-A2, the “HLA binding A2” value is on record as “A2:16”. Also, the “HLA binding B7” value with HLA-B7 was “B7:7”.

Consider FLICVSPLQL (Influenza A virus), for which the “HLA binding A2” value in the assay with HLA-A2 is given as “A2:24”. Moreover, the “HLA binding A24” value with HLA-A24 is given as “A24:13”. Consider IAPSSVKALS (Influenza A virus), for which the “found in influenza A virus-infected cells” value (shortened to “found”) with MHC class I is “truly found in influenza A virus-infected cells”. As to KITLKFAFNMM (Influenza A virus), the “found” value in the assay on MHC class I is on record as “truly found in influenza A virus-infected cells”. Take LFLICVSLL (Influenza A virus): in the assay with HLA-A2, the “HLA binding A2” value is “A2:18”. For the same sequence, in the assay with HLA-A24, the “HLA binding A24” value is listed as “A24:21”. In the case of LMQRGPSTF (Influenza A virus), the “found” value in the assay on MHC class I is “truly found in influenza A virus-infected cells”. As for SPLQLAILSL (Influenza A virus), the “HLA binding B7” value in the assay with HLA-B7 is given as “B7:22”.
